This is an account of results in paper PMC4356375, “Snapshots of ligand entry, malleable binding and induced helical movement in P-glycoprotein” (Acta Crystallographica Section D: Biological Crystallography, 2015).

A word on the IC50: it is the midpoint of a concentration-inhibition curve. The EC50 is the midpoint of the concentration-response curve. One may read the GI50 as the concentration at which growth is held to half of that of the control.

The target in series [1] is T1, P-gp (Cricetulus griseus, UniProt P21448).
T1 construct: endogenous in cells; host or cells: Chinese hamster ovary CR1R12 cells (colchicine-selected; parental AUXB1)
The experiment in a line: Calcein-AM transport assay in P-gp-overexpressing CR1R12 cells. The format is cell-based, Chinese hamster. Particulars: calcein-AM 0.25 µM, room temperature, read-out: IC50 inhibition of calcein-AM export. Here is the method: It has commonly been used in fluorescence-based transport assays for P-gp in whole-cell systems (Al-Shawi & Senior, 1993[▶]). Chinese hamster ovary CR1R12 cells were cultured in the presence of 5 µg ml^−1 colchicine to maintain P-gp overexpression. In general, ∼5 × 10^5 CR1R12 cells per well were pretreated with test compounds in serially increasing concentrations at room temperature for 15 min; calcein-AM (0.25 µM) was then added and incubated for an additional 15 min at room temperature while monitoring the fluorescence intensity (excitation at 485 nm, emission at 535 nm). 100% was the maximum fluorescence achieved by full inhibition of P-gp in CR1R12 cells. The means and standard deviations were obtained from quadruplet experiments.

The target in series [2] is T2, P-gp (Mus musculus, UniProt P21447).
T2 construct: inferred from the Ni-NTA purification; made in house; host or cells: Pichia pastoris
The experiment in a line: Stimulation of basal ATPase activity of purified P-gp. Particulars: 310 K. The class given is biochemical. The method, then:
The ATPase activity of P-gp was measured at 310 K using the ATP-regenerating system described by Vogel & Steinhart (1976[▶]) as modified by Urbatsch et al. (1995[▶]). Briefly, 1 µg P-gp was added to 100 µl 50 mM Tris–HCl pH 7.5 buffer containing 10 mM ATP, 12 mM MgCl2, 6 mM phosphoenolpyruvate, 1 mM NADH, 10 units of lactate dehydrogenase, 10 units of pyruvate kinase and test compounds over a range of concentrations. ATP hydrolysis was determined by the decrease in NADH absorbance at OD340 using a Filtermax F5 Multiplate Spectrophotometer. The ATPase activity was calculated using the equation ΔOD/(∊ × [protein] × time), where ΔOD is the change in absorbance and ∊ is the extinction coefficient of NADH. The concentration of purified P-gp was estimated by comparing the SDS–PAGE intensity of Coomassie-stained protein bands with known amounts of BSA. EC50 values were calculated using GraphPad Prism (GraphPad Software, San Diego, California, USA) using nonlinear regression (curve fit) from the entire concentration range.
Gene-optimized mouse P-gp (ABCB1a; GenBank JF834158) was expressed in Pichia pastoris in 10 l cultures in a BioFlo 415 bioreactor (New Brunswick Scientific) and was induced by the slow addition of methanol (3.6 ml per hour per litre of culture volume) overnight as described previously (Aller et al., 2009[▶]; Bai et al., 2011[▶]). […]

The next series concerns CR1R12 cells. The experiment in a line: Sensitization assay: growth of CR1R12 cells with colchicine (sulforhodamine B). The class given is cell-based, Chinese hamster. The method, then:
(§1) CR1R12 cells were grown in the presence of increasing concentrations of colchicine for 3 d at given concentrations of test compounds. Cell densities were determined using the sulforhodamine B colorimetric assay (Vichai & Kirtikara, 2006[▶]). 100% is defined as the growth in the absence of colchicine. Parental AUXB1 cells were included as controls. […]
(§2) Figure S4 Sensitization of CR1R12 cells to the anti-cancer drug colchicine by homotrimeric cyclopeptides. Relative to parental control AUXB1 cells, P-gp-overexpressing CR1R12 cells are ~200 times more resistant to the anticancer drug colchicine (gray lines in all panes). Their 50% growth […]
(§3) Presence of (a) QZ-Ala, green, (b)
(§4) QZ-Val, blue, and (d) QZ-Phe, red, in the growth media sensitized the CR1R12 cells to colchicine in a concentration-dependent manner with full reversal of P-gp mediated multidrug resistance seen at 2 […]
(§5) increasing concentrations of (c) QZ-Leu, yellow, also sensitized CR1R12 cells to colchicine, where […]
(§6) higher concentrations. Shown are representative data from three independent experiments. The concentrations are plotted in log scale.

Series [3] has as its system P-gp-over-expressing CR1R12, and parental control AuxB1, cells. The experiment in a line: Cytotoxicity of the cyclopeptides to CR1R12 and parental AuxB1 cells (Fig. S3). The class given is cell-based, Chinese hamster. The method, then: Figure S1 NMR spectra of QZ-Ala, QZ-Leu and QZ-Phe. 13C (top) and 1H (bottom) spectra are […]
Figure S2 Structure based alignment. Two views of P-gp depicting Cα position shifts between the new (P-gp native at 3.4 Å, reported here) and previously published model (pdb code: 4KSB). Changes are depicted by color with red indicating the largest shift in Cα position (8.35 Å). Alignments and pairwise Cα RMSD calculations were calculated using the python module ‘ColorByRMSD’ within the PyMOL Molecular Graphics System (Schrödinger, LLC)
Figure S3 Cytotoxicity of the homotrimeric cyclopeptide compounds to P -gp-over-expressing CR1R12, and parental control AuxB1, cells using Calcein-AM transport assay. P-gp mediates mild […]
of this compound at high concentrations. The mean and SD of quadruplet experiments are shown; data were fit using the Hill equation. QZ-Ala, QZ-Val, QZ-Leu and QZ-Phe are drawn in green, blue, yellow and red curves, respectively. The concentrations are plotted in log scale.
as §2
Presence of (a) QZ-Ala, green, (b) […]

Series [4] can be described thus: Solubility remark (Fig. S3 legend). The class given is physicochemical. Particulars: at high concentrations.
Another series has as its system AUXB1 cells. The experiment in a line: Growth inhibition of parental control AUXB1 cells by colchicine. The format is cell-based, Chinese hamster. Particulars: Cricetulus griseus, read-out: 50% growth inhibition (GI50). The method, then: as §1, §2, §3, §4, §5, §6

T1 sequence (P21448 whole entry): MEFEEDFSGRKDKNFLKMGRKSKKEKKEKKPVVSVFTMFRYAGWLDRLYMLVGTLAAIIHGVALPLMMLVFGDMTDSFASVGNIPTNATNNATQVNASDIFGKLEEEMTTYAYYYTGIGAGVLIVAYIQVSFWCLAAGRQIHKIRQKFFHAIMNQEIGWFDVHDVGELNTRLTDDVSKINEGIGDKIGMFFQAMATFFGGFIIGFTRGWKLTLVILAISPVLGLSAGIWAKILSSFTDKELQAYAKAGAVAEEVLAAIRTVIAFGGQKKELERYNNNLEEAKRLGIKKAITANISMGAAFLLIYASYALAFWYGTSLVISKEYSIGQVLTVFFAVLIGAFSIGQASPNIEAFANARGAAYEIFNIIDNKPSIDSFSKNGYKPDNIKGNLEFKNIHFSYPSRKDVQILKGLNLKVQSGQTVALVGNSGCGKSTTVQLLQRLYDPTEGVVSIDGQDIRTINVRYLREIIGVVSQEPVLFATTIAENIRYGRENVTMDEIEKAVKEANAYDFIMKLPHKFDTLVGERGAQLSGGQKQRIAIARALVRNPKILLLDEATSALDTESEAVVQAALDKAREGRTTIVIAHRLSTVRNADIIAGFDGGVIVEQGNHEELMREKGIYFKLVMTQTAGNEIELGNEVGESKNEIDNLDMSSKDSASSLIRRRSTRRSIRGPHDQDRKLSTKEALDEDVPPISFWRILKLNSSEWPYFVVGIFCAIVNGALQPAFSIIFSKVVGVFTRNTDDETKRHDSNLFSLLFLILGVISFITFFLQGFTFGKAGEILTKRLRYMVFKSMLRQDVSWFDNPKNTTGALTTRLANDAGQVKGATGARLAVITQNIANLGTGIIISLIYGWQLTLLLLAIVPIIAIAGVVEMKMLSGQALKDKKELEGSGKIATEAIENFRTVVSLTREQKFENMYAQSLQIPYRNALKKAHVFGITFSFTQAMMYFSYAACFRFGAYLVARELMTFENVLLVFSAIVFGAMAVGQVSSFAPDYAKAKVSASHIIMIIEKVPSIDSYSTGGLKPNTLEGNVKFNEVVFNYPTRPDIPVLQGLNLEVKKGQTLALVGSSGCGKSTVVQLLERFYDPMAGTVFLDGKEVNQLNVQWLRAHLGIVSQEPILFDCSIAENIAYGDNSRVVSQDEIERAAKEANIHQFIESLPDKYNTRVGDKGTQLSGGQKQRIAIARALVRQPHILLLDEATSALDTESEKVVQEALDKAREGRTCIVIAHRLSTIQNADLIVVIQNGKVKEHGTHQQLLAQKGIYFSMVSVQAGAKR
T2 sequence (P21447 whole entry): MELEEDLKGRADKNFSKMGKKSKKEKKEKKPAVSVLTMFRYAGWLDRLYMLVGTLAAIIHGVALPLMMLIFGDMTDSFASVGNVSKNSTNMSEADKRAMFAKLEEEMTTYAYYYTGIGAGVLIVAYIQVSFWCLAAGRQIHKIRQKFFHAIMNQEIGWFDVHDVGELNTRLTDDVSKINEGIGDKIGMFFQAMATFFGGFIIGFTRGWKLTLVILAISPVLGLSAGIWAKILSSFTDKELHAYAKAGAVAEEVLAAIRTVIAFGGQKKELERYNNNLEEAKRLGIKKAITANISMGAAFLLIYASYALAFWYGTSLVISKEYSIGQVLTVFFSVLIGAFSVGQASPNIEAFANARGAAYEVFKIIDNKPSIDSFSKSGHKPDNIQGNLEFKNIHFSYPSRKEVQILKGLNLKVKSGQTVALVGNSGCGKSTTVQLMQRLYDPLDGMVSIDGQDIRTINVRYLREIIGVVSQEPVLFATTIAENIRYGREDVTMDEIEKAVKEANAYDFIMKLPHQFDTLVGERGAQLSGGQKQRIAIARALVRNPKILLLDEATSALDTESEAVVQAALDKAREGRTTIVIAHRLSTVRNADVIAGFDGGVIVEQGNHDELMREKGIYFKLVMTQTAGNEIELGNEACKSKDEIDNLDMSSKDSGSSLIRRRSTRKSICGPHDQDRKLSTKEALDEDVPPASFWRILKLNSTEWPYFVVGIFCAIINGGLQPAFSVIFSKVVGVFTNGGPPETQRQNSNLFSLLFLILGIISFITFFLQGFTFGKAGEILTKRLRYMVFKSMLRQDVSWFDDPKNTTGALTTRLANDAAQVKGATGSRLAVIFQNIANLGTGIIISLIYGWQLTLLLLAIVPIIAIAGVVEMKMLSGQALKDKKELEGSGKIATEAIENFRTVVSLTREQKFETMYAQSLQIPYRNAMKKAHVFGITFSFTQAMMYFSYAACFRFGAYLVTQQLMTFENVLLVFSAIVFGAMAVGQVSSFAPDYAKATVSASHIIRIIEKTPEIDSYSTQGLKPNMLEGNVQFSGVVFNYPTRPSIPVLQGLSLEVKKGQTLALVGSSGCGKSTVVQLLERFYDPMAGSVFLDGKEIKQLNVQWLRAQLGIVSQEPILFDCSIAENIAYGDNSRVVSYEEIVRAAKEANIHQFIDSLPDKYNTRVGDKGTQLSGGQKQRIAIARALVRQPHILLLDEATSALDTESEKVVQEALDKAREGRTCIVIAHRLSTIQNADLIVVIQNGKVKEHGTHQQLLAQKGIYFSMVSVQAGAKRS

As for `C[C@@H]1NC(=O)c2c[se]c(n2)[C@H](C)NC(=O)c2c[se]c(n2)[C@H](C)NC(=O)c2c[se]c1n2` [QZ-Ala], at P-gp [1], the IC50 was 140 nM. This compound also returned an EC50 at P-gp [2] of 920 nM.

With `CC(C)C[C@@H]1NC(=O)c2c[se]c(n2)[C@H](CC(C)C)NC(=O)c2c[se]c(n2)[C@H](CC(C)C)NC(=O)c2c[se]c1n2` [QZ-Leu], in the series on CR1R12 cells (CR1R12 cells, higher concentrations), the “Cytotoxicity (in words)” value is on record as “became cytotoxic”. Further, at P-gp [1], the IC50 is 5400 nM.

Consider `O=C1N[C@@H](Cc2ccccc2)c2nc(c[se]2)C(=O)N[C@@H](Cc2ccccc2)c2nc(c[se]2)C(=O)N[C@@H](Cc2ccccc2)c2nc1c[se]2` [QZ-Phe], for which, in series [3], the “Full growth inhibition (in words)” value is given as “not observed”. Besides, in series [4], the “Solubility (in words)” value is recorded as “limited solubility”. In addition, the IC50 on P-gp [1] was 24000 nM.

Turning to `CC(C)[C@@H]1NC(=O)c2c[se]c(n2)[C@H](C(C)C)NC(=O)c2c[se]c(n2)[C@H](C(C)C)NC(=O)c2c[se]c1n2` [QZ-Val], the half-maximal inhibitory concentration (IC50) on P-gp [1] was 1700 nM.

With `COc1cc2c(c(OC)c1OC)-c1ccc(OC)c(=O)cc1[C@@H](NC(C)=O)CC2` [colchicine], the GI50 turned out to be 140 nM with AUXB1 cells and 27000 nM in the series on CR1R12 cells (Cricetulus griseus, CR1R12 cells, no cyclopeptide, read-out: 50% growth inhibition (GI50)). Also, the “Resistance of CR1R12 cells relative to AUXB1 cells” value with CR1R12 cells (CR1R12 vs parental AUXB1) is listed as ~ 200 times.
